Measurements published in paper PMC7232676, “Fragment-Based Design of Mycobacterium tuberculosis InhA Inhibitors” (Journal of Medicinal Chemistry, 2020).
Where two headings read alike, the source gives them in different places.

Target: InhA (Mycobacterium tuberculosis, UniProt P9WGR1)
Assay: InhA enzymatic assay (NADH oxidation at 340 nm, 2-trans-octanoyl-CoA substrate)
Format: biochemical
Description: The identified fragment hits were further evaluated by an InhA enzymatic assay using 2-trans-octanoyl-CoA as a substrate.[22]
The carboxylic acid in fragment 1 (P1) was replaced by an isosteric sulfonamide as a linker to synthesize compound 6 (Figure 2b). Docking experiments with Glide XP[23] […] All the synthesized compounds were tested at a concentration of 100 μM using the InhA enzymatic assay.
InhA activity was followed by a colorimetric assay that measured the oxidation of NADH at 340 nm in the presence of 2-trans-octanoyl-CoA as described before in a buffer that contained 30 mM PIPES, pH 7.5, 50 mM NaCl, 0.1 mM EDTA, and 100 nM InhA.[26] This was preincubated for 10 min at room temperature with 0.25 mM NADH and varying concentrations of the compounds with 1% (v/v) DMSO in a 150 μL reaction volume. The reaction was started by the addition of 2-trans-octanoyl-CoA at a final concentration of 1.5 mM, prepared as described previously.[22] Reactions were followed for 20 min using a plate reader (CLARIOstar, BMG LABTECH).

[1] = 100 μM compound, read-out: Inh % (inhibition percentage of InhA)
[2] = supplementary CSV, read-out: % inhibition

Sequence of InhA (P9WGR1 whole entry, looked up): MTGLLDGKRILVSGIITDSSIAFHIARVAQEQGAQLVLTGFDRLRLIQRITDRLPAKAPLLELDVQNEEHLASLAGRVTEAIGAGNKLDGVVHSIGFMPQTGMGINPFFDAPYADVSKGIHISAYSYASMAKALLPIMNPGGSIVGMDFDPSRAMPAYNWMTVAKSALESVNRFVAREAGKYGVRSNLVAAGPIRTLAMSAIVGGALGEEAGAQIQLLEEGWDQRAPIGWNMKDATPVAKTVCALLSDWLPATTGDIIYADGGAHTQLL

Compound	inhibition at 100 µM [1] [%]	inhibition at 100 µM [2] [%]	Inh % (inhibition percentage of InhA) (100 μM compound) [%]	% inhibition (supplementary CSV) [%]
O=S(=O)(/C=C/c1cccc(C(F)(F)F)c1)Nc1ccccc1 [compound 6, (E)-N-Phenyl-2-(3-(trifluoromethyl)phenyl)ethene-1-sulfonamide]	54	54		
O=S(=O)(/C=C/c1cccc(C(F)(F)F)c1)NC1CCNCC1 [compound 7, (E)-N-(Piperidin-4-yl)-2-(3-(trifluoromethyl)phenyl)ethene-1-sulfonamide]	15	15		
O=S(=O)(/C=C/c1cccc(C(F)(F)F)c1)Nc1cccnc1 [compound 8, (E)-N-(Pyridin-3-yl)-2-(3-(trifluoromethyl)phenyl)ethene-1-sulfonamide]	17	17		
COC(=O)c1ccc(NS(=O)(=O)/C=C/c2cccc(C(F)(F)F)c2)cc1 [compound 9, Methyl-(E)-4-((2-(3-(trifluoromethyl)phenyl)vinyl)sulfonamido)benzoate]	0	0		
CC(C)(C)OC(=O)Nc1ccc(NS(=O)(=O)/C=C/c2cccc(C(F)(F)F)c2)cc1 [compound 10, tert-Butyl-(E)-(4-((2-(3-(trifluoromethyl)phenyl)vinyl)sulfonamido)phenyl)carbamate]	11	11		
Nc1ccc(NS(=O)(=O)/C=C/c2cccc(C(F)(F)F)c2)cc1 [compound 11, (E)-N-(4-Aminophenyl)-2-(3-(trifluoromethyl)phenyl)ethene-1-sulfonamide]	6	6		
COc1ccc(NS(=O)(=O)/C=C/c2cccc(C(F)(F)F)c2)cc1 [compound 12, (E)-N-(4-Methoxyphenyl)-2-(3-(trifluoromethyl)phenyl)ethene-1-sulfonamide]	15	15		
COC(=O)Cc1ccc(NS(=O)(=O)/C=C/c2cccc(C(F)(F)F)c2)cc1 [compound 13, Methyl-(E)-2-(4-((2-(3-(trifluoromethyl)phenyl)vinyl)sulfonamido)phenyl)acetate]	24	24		
CNCc1ccc(NS(=O)(=O)/C=C/c2cccc(C(F)(F)F)c2)cc1 [compound 15, (E)-N-(4-((Methylamino)methyl)phenyl)-2-(3-(trifluoromethyl)phenyl)ethene-1-sulfonamide]	0	0		
CC(=O)NCc1ccc(NS(=O)(=O)/C=C/c2cccc(C(F)(F)F)c2)cc1 [compound 16, (E)-N-(4-((2-(3-(Trifluoromethyl)phenyl)vinyl)sulfonamido)benzyl)acetamide]	25	25		
O=C(O)c1ccc(NS(=O)(=O)/C=C/c2cccc(C(F)(F)F)c2)cc1 [compound 17, (E)-4-((2-(3-(Trifluoromethyl)phenyl)vinyl)sulfonamido)benzoic Acid]	0	0		
O=S(=O)(/C=C/c1cccc(C(F)(F)F)c1)Nc1ccc2c(c1)CNCC2 [compound 20, (E)-N-(1,2,3,4-Tetrahydroisoquinolin-7-yl)-2-(3-(trifluoromethyl)phenyl)ethene-1-sulfonamide]	0	0		
CC(C)(C)c1ccc(S(=O)(=O)Nc2cccc(CN)c2)cc1 [compound 21, N-(3-(Aminomethyl)phenyl)-4-(tert-butyl)benzenesulfonamide]	40	40		
NCc1cccc(NS(=O)(=O)CCc2cccc3ccccc23)c1 [compound 22, N-(3-(Aminomethyl)phenyl)-2-(naphthalen-1-yl)ethane-1-sulfonamide]	17	17		
(E)-4-((2-(3-(Trifluoromethyl)phenyl)vinyl)sulfonamido)benzamide [compound 18]			0	0
